Here are results for 1 substance from patent publication US20240216490A1, “Autoantigens Engineered to Suppress Autoimmune Response” (Osprey Biopharmaceuticals, Inc., priority 2022, published 2024).

In data set [1] the test system is C57Bl/6 mice. As to the kind of experiment: ex vivo flow cytometry of splenic adalimumab-specific and germinal center B cells (Example 13). In kind it is in vivo, mouse. The protocol:
To measure B cell activation following the described stimulation, cells were washed twice by spinning cells at 1200 rpm for 5 minutes and rinsing with PBS. Cells were then resuspended in staining buffer (1% bovine serum albumin/0.1% sodium azide/1× phosphate buffered saline) and incubated with Fc-block (BD Biosciences) for five minutes before the addition of anti-CD45, anti-CD19, anti-CD69, and anti-CD86 antibodies (BD Biosciences, Biolegend, Fisher). Cells were then incubated in the dark for an additional 30 minutes at room temperature. Cells were then washed three times with staining buffer and then analyzed on a ZE5 Cell Analyzer (BioRad). Data analysis was performed using FlowJo (v10.8.0) software.
For studies evaluating the generation of adalimumab-specific B cells, C57Bl/6 mice were dosed with a single subcutaneous dose of either SigL-adalimumab (4 mg/kg) or unconjugated adalimumab (4 mg/kg). Splenocytes were then isolated from animals seven days after dosing. In the experiment depicted in FIG. 15, mice that had been dosed with unconjugated adalimumab (4 mg/kg) on Day 0 were dosed again on Day 3 with SigL-adalimumab (4 mg/kg, subcutaneous) or vehicle (PBS) prior to splenocyte isolation on Day 7 of the study.
For the evaluation of germinal center formation (FIG. 14), C57Bl/6 mice were dosed with a single subcutaneous dose of either SigL-adalimumab (4 mg/kg), unconjugated adalimumab (4 mg/kg) or vehicle (PBS) on Day 0. Animals in each arm of this study were then dosed on Day 7 with either a single subcutaneous dose of SigL-adalimumab (4 mg/kg) or unconjugated adalimumab (4 mg/kg). Formation of adalimumab-specific B cells and germinal center B cells were then analyzed on Day 14 of the study as described below.
At the specified time points described above, splenocytes were harvested from individual animals and made into single cell suspension, subjected to red cell lysis using ACK buffer, and plated at a concentration of 200,000 cells per well in round bottom 96 well plates in complete RPMI media. Cells were then processed for flow cytometry as described above. For adalimumab-specific B cells, splenocytes were stained with anti-CD4, ant-CD8a, anti-F4/80, anti-LY6G, anti-CD19, anti-IgD (BD Biosciences, Biolegend, Fisher, eBioscience) and adalimumab-[…] conjugate (Invitrogen). For germinal center B cells, splenocytes were stained with anti-CD45, anti-CD19, anti-GL7, and anti-CD95. Cells were then incubated in the dark for an additional 30 minutes at room temperature. Cells were then washed three times with staining buffer and then analyzed on a ZE5 Cell Analyzer (BioRad). Data analysis was performed using FlowJo (v10.8.0) software.
A general note: In flow cytometry, cells or beads pass a laser one at a time.

The test system of data set [2] is C57Bl/6 mice. The data set is described as follows: ADA response to adalimumab-anti-mouse CD22 scFv fusion protein in mice (Example 15). In kind it is in vivo. Conditions: after a single 4 mg/kg dose. From the text: To evaluate the production of antibodies specific to adalimumab and/or adalimumab-anti-mouse CD22 scFv fusion protein, 8 week old female C57BL/6 mice (n=5 per group) were immunized through intravenous injection with adalimumab or adalimumab-anti-mouse CD22 scFv fusion protein. On study day −1, animals were randomized into treatment groups based on body weight. On study day 0, animals were bled for baseline serum and then injected IV with adalimumab or adalimumab-anti-mouse CD22 scFv fusion protein. Animals were dosed […] with 4 mg/kg of adalimumab or adalimumab-anti-mouse CD22 scFv fusion protein. Animals were bled via the retro-orbital sinus weekly throughout the study under inhaled isoflurane anesthesia. On study day, 28 animals were anesthetized with inhaled isoflurane anesthesia and then bled via cardiac puncture and then sacrificed by cervical dislocation. […]
ADA assays were performed on 96-well assay plates (Nunc Plates, Black 96-Well Immuno Plates, Thermo Scientific, 437111) coated with antigen, as follows. […] The excitation and emission settings for the QuantaBlu Fluorogenic Peroxide Substrates are 325 nm and 420 nm and the relative florescence units were measured using a SpectraMax plate reader. […] Titers were determined by the dilution of serum that gives a 2× OD above background.

adalimumab: the “presence of adalimumab-specific B cells (CD45+CD19+IgD−Adal+) in spleen” value in data set [1] (7 days post single 4 mg/kg s.c. dose) is “detected”. The “splenic adalimumab-specific B cells” value in data set [1] (day 14, s.c. dosing days 0 and 7, conjugate day 0 followed by adalimumab day 7) is reported as “induces”. Also, the “mean abundance of adalimumab-specific B cells” value in data set [1] (spleen, 7 days post single 4 mg/kg s.c. dose) is on record as 0.2 % of splenic IgD^− B cells. Moreover, the “germinal center B cells (CD19+CD95+GL7+)” value in data set [1] (spleen, day 14, dosing days 0 and 7) is given as “increase in the abundance of germinal center B cells”. In data set [2], the “immunogenicity in mice (immunoglobulin response)” value was “highly immunogenic”.
